Experimental data: patent US9670210B2, “Cyclopropylamines as LSD1 inhibitors” (Incyte Corporation, priority 2014, dated 2017)
Like-named read-outs stand apart in the source and are kept apart here.

Columns and labels:
LSD-1 enzyme [1] = target: T1, LSD-1 enzyme (Homo sapiens (Human), UniProt O60341)
Description: (§1) LSD1 Histone Demethylase Biochemical Assay
(§2) LANCE LSD1/KDM1A demethylase assay-10 μL of 1 nM LSD-1 enzyme (ENZO BML-SE544-0050) in the assay buffer (50 mM Tris, pH 7.5, 0.01% Tween-20, 25 mM NaCl, 5 mM DTT) were preincubated for 1 hour at 25° C. with 0.8 μL compound/DMSO dotted in black 384 well polystyrene plates. […] After stopping the reactions plates were incubated for 30 minutes and read on a PHERAstar FS plate reader (BMG Labtech).

LSD-1 enzyme [2] = target: T1, LSD-1 enzyme; assay: biochemical
Description: as §1, §2

## O=C(O)C1(CN2CCC(CN[C@@H]3C[C@H]3c3ccccc3)(COC3CCCCC3)CC2)CCC1 [Example 95, 1-{[4-[(cyclohexyloxy)methyl]-4-({[(1R,2S)-2-phenylcyclopropyl]amino}methyl)piperidin-1-yl]methyl}cyclobutanecarboxylic acid]
LSD-1 enzyme [1]
  IC50: < 100 nM

## O=C(O)C1(CN2CCC(CN[C@@H]3C[C@H]3c3ccccc3)(Cc3ccc(F)cn3)CC2)CC1 [Example 96, 1-{[4-[(5-fluoropyridin-2-yl)methyl]-4-({[(1R,2S)-2-phenylcyclopropyl]amino}methyl)piperidin-1-yl]methyl}cyclopropanecarboxylic acid]
LSD-1 enzyme [1]
  IC50: < 100 nM

## O=C(O)C1(CN2CCC(CN[C@@H]3C[C@H]3c3ccccc3)(Cc3ccc(F)cn3)CC2)CCC1 [Example 97, 1-{[4-[(5-fluoropyridin-2-yl)methyl]-4-({[(1R,2S)-2-phenylcyclopropyl]amino}methyl)piperidin-1-yl]methyl}cyclobutanecarboxylic acid]
LSD-1 enzyme [1]
  IC50: < 100 nM

## COc1ccc(CC2(CN[C@@H]3C[C@H]3c3ccccc3)CCN(CC3(C(=O)O)CC3)CC2)cc1 [Example 98, 1-{[4-(4-methoxybenzyl)-4-({[(1R,2S)-2-phenylcyclopropyl]amino}methyl)piperidin-1-yl]methyl}cyclopropanecarboxylic acid]
LSD-1 enzyme [1]
  IC50: < 100 nM

## COc1ccc(CC2(CN[C@@H]3C[C@H]3c3ccccc3)CCN(CC3(C(=O)O)CCC3)CC2)cc1 [Example 99, 1-{[4-(4-methoxybenzyl)-4-({[(1R,2S)-2-phenylcyclopropyl]amino}methyl)piperidin-1-yl]methyl}cyclobutanecarboxylic acid]
LSD-1 enzyme [1]
  IC50: < 100 nM

## COCC1(CN[C@@H]2C[C@H]2c2ccccc2)CCN(C(=O)[C@H]2CC[C@H](CO)CC2)CC1 [Example 100, (trans-4-{[4-(methoxymethyl)-4-({[(1R,2S)-2-phenylcyclopropyl]amino}methyl)piperidin-1-yl]carbonyl}cyclohexyl)methanol]
LSD-1 enzyme [1]
  IC50: < 100 nM

## COCC1(CN[C@@H]2C[C@H]2c2ccccc2)CCN(C(=O)[C@H]2CC[C@@H](CO)CC2)CC1 [Example 101, (cis-4-{[4-(methoxymethyl)-4-({[(1R,2S)-2-phenylcyclopropyl]amino}methyl)piperidin-1-yl]carbonyl}cyclohexyl)methanol]
LSD-1 enzyme [1]
  IC50: < 100 nM

## COCC1(CN[C@@H]2C[C@H]2c2ccccc2)CCN(C(=O)C2(C#N)CC2)CC1 [Example 102, 1-{[4-(methoxymethyl)-4-({[(1R,2S)-2-phenylcyclopropyl]amino}methyl)piperidin-1-yl]carbonyl}cyclopropanecarbonitrile]
LSD-1 enzyme [1]
  IC50: < 100 nM

## COCC1(CN[C@@H]2C[C@H]2c2ccccc2)CCN(C(=O)c2cnn(CCO)c2)CC1 [Example 103, 2-(4-{[4-(methoxymethyl)-4-({[(1R,2S)-2-phenylcyclopropyl]amino}methyl)piperidin-1-yl]carbonyl}-1H-pyrazol-1-yl)ethanol]
LSD-1 enzyme [1]
  IC50: < 100 nM

## COCCn1cc(C(=O)N2CCC(CN[C@@H]3C[C@H]3c3ccccc3)(COC)CC2)cn1 [Example 104, (1R,2S)—N-{[1-{[1-(2-methoxyethyl)-1H-pyrazol-4-yl]carbonyl}-4-(methoxymethyl)piperidin-4-yl]methyl}-2-phenylcyclopropanamine]
LSD-1 enzyme [1]
  IC50: < 100 nM

## COCC1(CN[C@@H]2C[C@H]2c2ccccc2)CCN(C(=O)c2cnn(C)c2)CC1 [Example 105, (1R,2S)—N-({4-(methoxymethyl)-1-[(1-methyl-1H-pyrazol-4-yl)carbonyl]piperidin-4-yl}methyl)-2-phenylcyclopropanamine]
LSD-1 enzyme [1]
  IC50: < 100 nM

## COCC1(CN[C@@H]2C[C@H]2c2ccccc2)CCN(C(=O)c2cnn(CCC#N)c2)CC1 [Example 106, 3-(4-{[4-(methoxymethyl)-4-({[(1R,2S)-2-phenylcyclopropyl]amino}methyl)piperidin-1-yl]carbonyl}-1H-pyrazol-1-yl)propanenitrile]
LSD-1 enzyme [1]
  IC50: < 100 nM

## COCC1(CN[C@@H]2C[C@H]2c2ccccc2)CCN(C(=O)c2ccn(CCC#N)n2)CC1 [Example 107, 3-(3-{[4-(methoxymethyl)-4-({[(1R,2S)-2-phenylcyclopropyl]amino}methyl)piperidin-1-yl]carbonyl}-1H-pyrazol-1-yl)propanenitrile]
LSD-1 enzyme [1]
  IC50: < 100 nM

## COCC1(CN[C@@H]2C[C@H]2c2ccccc2)CCN(C(=O)c2ccn(CCO)n2)CC1 [Example 108, 2-(3-{[4-(methoxymethyl)-4-({[(1R,2S)-2-phenylcyclopropyl]amino}methyl)piperidin-1-yl]carbonyl}-1H-pyrazol-1-yl)ethanol]
LSD-1 enzyme [1]
  IC50: < 100 nM

## COCC1(CN[C@@H]2C[C@H]2c2ccccc2)CCN(C(=O)N2CCC[C@@H](O)C2)CC1 [Example 109, (3R)-1-{[4-(methoxymethyl)-4-({[(1R,2S)-2-phenylcyclopropyl]amino}methyl)piperidin-1-yl]carbonyl}piperidin-3-ol]
LSD-1 enzyme [1]
  IC50: < 100 nM

## COCC1(CN[C@@H]2C[C@H]2c2ccccc2)CCN(C(=O)N2CCC[C@H](O)C2)CC1 [Example 110, (3S)-1-{[4-(methoxymethyl)-4-({[(1R,2S)-2-phenylcyclopropyl]amino}methyl)piperidin-1-yl]carbonyl}piperidin-3-ol]
LSD-1 enzyme [1]
  IC50: < 100 nM

## COCC1(CN[C@@H]2C[C@H]2c2ccccc2)CCN(C(=O)N2CC(O)C2)CC1 [Example 111, 1-{[4-(methoxymethyl)-4-({[(1R,2S)-2-phenylcyclopropyl]amino}methyl)piperidin-1-yl]carbonyl}azetidin-3-ol]
LSD-1 enzyme [2]
  IC50: < 100 nM

## COCC1(CN[C@@H]2C[C@H]2c2ccccc2)CCN(C(=O)N2CCC(O)CC2)CC1 [Example 112, 1-{[4-(methoxymethyl)-4-({[(1R,2S)-2-phenylcyclopropyl]amino}methyl)piperidin-1-yl]carbonyl}piperidin-4-ol]
LSD-1 enzyme [1]
  IC50: < 100 nM

## COCC1(CN[C@@H]2C[C@H]2c2ccccc2)CCN(C(=O)N2CCC(OC)CC2)CC1 [Example 113, (1R,2S)—N-({4-(methoxymethyl)-1-[(4-methoxypiperidin-1-yl)carbonyl]piperidin-4-yl}methyl)-2-phenylcyclopropanamine]
LSD-1 enzyme [1]
  IC50: < 100 nM

## COCC1(CN[C@@H]2C[C@H]2c2ccccc2)CCN(S(=O)(=O)c2cnn(C)c2)CC1 [Example 114, (1R,2S)—N-({4-(methoxymethyl)-1-[(1-methyl-1H-pyrazol-4-yl)sulfonyl]piperidin-4-yl}methyl)-2-phenylcyclopropanamine]
LSD-1 enzyme [1]
  IC50: < 100 nM

## COCC1(CN[C@@H]2C[C@H]2c2ccccc2)CCN(S(=O)(=O)c2ccnn2C)CC1 [Example 115, (1R,2S)—N-({4-(methoxymethyl)-1-[(1-methyl-1H-pyrazol-5-yl)sulfonyl]piperidin-4-yl}methyl)-2-phenylcyclopropanamine]
LSD-1 enzyme [1]
  IC50: < 100 nM

## COCC1(CN[C@@H]2C[C@H]2c2ccccc2)CCN(S(=O)(=O)c2ccn(C)n2)CC1 [Example 116, (1R,2S)—N-({4-(methoxymethyl)-1-[(1-methyl-1H-pyrazol-3-yl)sulfonyl]piperidin-4-yl}methyl)-2-phenylcyclopropanamine]
LSD-1 enzyme [1]
  IC50: < 100 nM
